# Values of other authors as cited in patent US6132722A, “Recombinant antibody-enzyme fusion proteins” (Bristol-Myers Squibb Company, priority 1998, dated 2000).
# Test system: 3677 melanoma xenografts
# Details: drug alone, Kerr et al. 1995
smiles,measurement,value
COc1cccc2c1C(=O)c1c(O)c3c(c(O)c1C2=O)C[C@@](O)(C(=O)CO)C[C@@H]3O[C@H]1C[C@H](N)[C@H](O)[C@H](C)O1 [doxorubicin],response of the 3677 tumor model to treatment,resistant
